# Results taken from ChEMBL document CHEMBL1138518 (J Med Chem, 2009).
# Experiments:
# SK-BR-3 = experiment: Cytotoxicity against human SKBR3 cells after 72 hrs by celltiter-glo assay; assay type: functional, cell-based
# [1] = target: Heat shock protein HSP 90-beta (Homo sapiens, UniProt P08238); experiment: Binding affinity to human recombinant HSP90
# Sequence of Heat shock protein HSP 90-beta (P08238 whole entry): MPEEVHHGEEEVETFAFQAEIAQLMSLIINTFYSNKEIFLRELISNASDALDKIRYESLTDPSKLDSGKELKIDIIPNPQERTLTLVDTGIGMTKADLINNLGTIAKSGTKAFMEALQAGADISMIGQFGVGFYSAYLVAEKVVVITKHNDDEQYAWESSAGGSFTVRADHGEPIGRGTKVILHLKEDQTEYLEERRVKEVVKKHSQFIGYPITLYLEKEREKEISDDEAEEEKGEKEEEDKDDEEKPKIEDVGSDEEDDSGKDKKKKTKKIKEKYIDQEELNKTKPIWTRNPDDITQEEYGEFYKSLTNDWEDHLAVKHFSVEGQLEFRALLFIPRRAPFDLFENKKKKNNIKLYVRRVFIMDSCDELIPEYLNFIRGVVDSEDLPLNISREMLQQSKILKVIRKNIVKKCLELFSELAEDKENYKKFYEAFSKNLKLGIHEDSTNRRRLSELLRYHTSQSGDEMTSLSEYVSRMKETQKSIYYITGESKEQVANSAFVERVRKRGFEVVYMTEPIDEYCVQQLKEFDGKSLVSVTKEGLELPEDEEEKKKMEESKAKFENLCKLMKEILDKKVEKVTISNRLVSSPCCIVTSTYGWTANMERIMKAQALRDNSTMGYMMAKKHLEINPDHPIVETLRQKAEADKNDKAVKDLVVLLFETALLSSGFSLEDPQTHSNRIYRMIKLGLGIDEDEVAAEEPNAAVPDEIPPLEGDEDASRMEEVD
SMILES,"IC50 (SK-BR-3; Homo sapiens, SK-BR-3, 72 h)",IC50 [1],Kd [1],IC50 (SK-BR-3; sk-br-3)
CO[C@H]1/C=C\C=C(/C)C(=O)NC2=CC(=O)C(NCCN(C)C)=C(C[C@@H](C)C[C@H](OC)[C@H](OC(=O)NN)[C@@H](C)/C=C(\C)[C@@H]1OC(N)=O)C2=O,> 1000 nM,5 nM,,
COC1=C2C[C@@H](C)C[C@H](OC)[C@H](OC)[C@@H](C)/C=C(\C)[C@H](OC(N)=O)[C@@H](OC)/C=C\C=C(/C)C(=O)NC(=CC1=O)C2=O,9.1 nM,,490 nM,
CO[C@H]1C[C@H](C)CC2=C(N3CCC3)C(=O)C=C(NC(=O)/C(C)=C/C=C\[C@H](OC)[C@@H](OC(N)=O)/C(C)=C/[C@H](C)/C1=N\O)C2=O,310 nM,,> 25000 nM,
C=CCNC1=C2C[C@@H](C)C[C@H](OC)/C(=N/O)[C@@H](C)/C=C(\C)[C@H](OC(N)=O)[C@@H](OC)/C=C\C=C(/C)C(=O)NC(=CC1=O)C2=O,350 nM,,> 10000 nM,
C=CCO[C@H]1[C@@H](OC)C[C@H](C)CC2=C(N3CCC3)C(=O)C=C(NC(=O)/C(C)=C/C=C\[C@H](OC)[C@@H](OC(N)=O)/C(C)=C/[C@@H]1C)C2=O,390 nM,,2900 nM,
CO[C@H]1C[C@H](C)CC2=C(NCCF)C(=O)C=C(NC(=O)/C(C)=C/C=C\[C@H](OC)[C@@H](OC(N)=O)/C(C)=C/[C@H](C)/C1=N\O)C2=O,> 1000 nM,,> 25000 nM,
C=CCNC1=C2C[C@@H](C)C[C@H](OC)C(=O)[C@@H](C)/C=C(\C)[C@H](OC(N)=O)[C@@H](OC)/C=C\C=C(/C)C(=O)NC(=CC1=O)C2=O (stereo in doubt),450 nM,,3300 nM,
CO[C@H]1/C=C\C=C(/C)C(=O)NC2=CC(=O)C(N)=C(C[C@@H](C)C[C@H](OC)[C@H](O)[C@@H](C)/C=C(\C)[C@@H]1OC(N)=O)C2=O (stereo in doubt),33 nM,,100 nM,
CO[C@H]1C[C@H](C)CC2=C(N3CCC3)C(=O)C=C(NC(=O)/C(C)=C/C=C\[C@H](OC)[C@@H](OC(N)=O)/C(C)=C/[C@H](C)C1=O)C2=O (stereo in doubt),260 nM,,6400 nM,
CO[C@H]1/C=C\C=C(/C)C(=O)NC2=CC(=O)C(NCCF)=C(C[C@@H](C)C[C@H](OC)[C@H](O)[C@@H](C)/C=C(\C)[C@@H]1OC(N)=O)C2=O (stereo in doubt),17 nM,,800 nM,
CO[C@H]1/C=C\C=C(/C)C(=O)NC2=CC(=O)C(N3CCC3)=C(C[C@@H](C)C[C@H](OC)[C@H](O)[C@@H](C)/C=C(\C)[C@@H]1OC(N)=O)C2=O (stereo in doubt),24 nM,,1400 nM,
CO[C@H]1/C=C\C=C(/C)C(=O)NC2=CC(=O)C(NCCF)=C(C[C@@H](C)C[C@H](OC)[C@H](OC(=O)CN)[C@@H](C)/C=C(\C)[C@@H]1OC(N)=O)C2=O (stereo in doubt),110 nM,,> 25000 nM,
CO[C@H]1/C=C\C=C(/C)C(=O)NC2=CC(=O)C(NCCc3c[nH]cn3)=C(C[C@@H](C)C[C@H](OC)[C@H](O)[C@@H](C)/C=C(\C)[C@@H]1OC(N)=O)C2=O (stereo in doubt),98 nM,,800 nM,
CO[C@H]1/C=C\C=C(/C)C(=O)NC2=CC(=O)C(NCCN3CCCC3)=C(C[C@@H](C)C[C@H](OC)[C@H](O)[C@@H](C)/C=C(\C)[C@@H]1OC(N)=O)C2=O (stereo in doubt),70 nM,,400 nM,
CO[C@H]1/C=C\C=C(/C)C(=O)NC2=CC(=O)C(NCCN3CCC3)=C(C[C@@H](C)C[C@H](OC)[C@H](O)[C@@H](C)/C=C(\C)[C@@H]1OC(N)=O)C2=O (stereo in doubt),26 nM,,400 nM,
COC1=C2C[C@@H](C)C[C@H](OC)[C@H](O)[C@@H](C)/C=C(\C)[C@H](OC(N)=O)[C@@H](OC)/C=C\C=C(/C)C(=O)NC(=CC1=O)C2=O [GELDANAMYCIN],,,,41 nM
C=CCNC1=C2C[C@@H](C)C[C@H](OC)[C@H](O)[C@@H](C)/C=C(\C)[C@H](OC(N)=O)[C@@H](OC)/C=C\C=C(/C)C(=O)NC(=CC1=O)C2=O [TANESPIMYCIN],33 nM,,,
